From patent US7745465B2, “Method of enhancing cellular production of molecular chaperone, hydroxylamine derivatives useful for enhancing the chaperone production and the preparation thereof” (CytRx Corporation, priority 1995, dated 2010) come the findings set out here.

One assay has as its system HSP-70. The experiment in a line: Myocardial HSP-70 protein content in isolated rat hearts (Western blot). As to the method:
In separate experiments the effects of heat stress, ischemia, N-[2-hydroxy-3-(1-piperidinyl)propoxy]-3-pyridine carboximidoyl chloride maleate and their combination were studied on myocardial HSP-70 protein content. Isolated hearts were subjected to 15 min. heat-stress (42° C.), global normothermic ischemia, and N-[2-hydroxy-3-[…](1-piperidinyl)propoxy]-3-pyridine carboximidoyl chloride maleate perfusion followed by 120 and 180 min. reperfusion, respectively.
A general note: In western blotting, separated proteins are transferred to a membrane and probed.

The test system of the next assay is HSP72. The experiment in a line: Heat stress induced hsp72 level in L-929 mouse fibroblast cells. It counts as cell-based. As to conditions: L-929 cells, 10^−5 M, treatment preceded heat stress. As to the method: From the applied cells the 3T3 and L-929 mouse fibroblasts were cultured in MEM medium and grew in monolayer, the U-937 human leukemia cells were maintained in RPMI-1640 medium, in suspension culture, while the HeLa human epithelial cells were cultured in DMEM medium and in monolayer form. Cell cultures were maintained as described in example 6.2 (a) with the difference that cells were cultured in the above mentioned culture mediums.
Experiments were carried out applying stress before and after the drug treatment. Stress was provoked by heat, by chemical agent, HgCl2 treatment. The test compounds were applied in the treatments at the 10^−5 M concentration.
The experiments on 3T3 cell applying heat stress were performed as described in the 6.2. (c) point of example 6, with the difference that stress was induced by a 30 min. exposure at 43° C. temperature and treatment with the test compounds was performed 15 min. before or 100 min. after the heat stress.
Experiments using heat shock on U-937 leukemia and L-929 mouse fibroblast cells were carried out similarly as described above, but drug treatments in these tests always preceded the heat stress. The compound N-[2-hydroxy-3-(1-piperidinyl)-propoxy]-3-pyridine-carboximidoyl chloride maleate was tested at the 10^−5 M concentration under these experimental conditions.

The subject of assay [1] is WEHI mouse fibrosarcoma cell. The experiment in a line: Serum deprivation, cell viability by MTT test (WEHI). It counts as cell-based. The note with it: serum deprived WEHI, 10^−5 M, control 100%, serum deprived alone 74.8%, read-out: relative cell viability. As to the method: Experiments were carried out using WEH1 mouse fibrosarcoma and H9c2 rat heart muscle cell lines divided into three groups: • control (10% FCS fetal calf serum) • serum deprived • N-[2-hydroxy-3-(1-piperidinyl)propoxy]-3-pyridinecarboximidoyl chloride maleate (10^−5 M) treated and serum deprived 1.2(i) Serum Deprivation and MTT Test
We have screened various cell lines, drug concentrations, pretreatment and deprivation times and we have found the most appropriate conditions as follows: […] H9c2 rat heart muscle cell (n=6) and WEHI mouse fibrosarcoma cell (n=7) have been plated on 24 well plates in 10% FCS DMEM (Dulbecco modified Eagle's medium) and incubated for 2 hours at 37 C, 5% CO2. Medium has been discarded and replaced by 10% FCS DMEM containing 10^−5 M N-[2-hydroxy-3-(1-piperidinyl)propoxy ]-3-pyridinecarboximidoyl chloride maleate. […] Cell viability was measured by MTT test based on the method of Plumb et al. (Cancer Res. 49: 4435-4444 (1989)) The tetrazolium salt method involving conversion of MTT (3-(4,5-dimethylthiazol-2yl)-2,5-diphenyltetrazolium bromide) to colored formazan by alive cells, served as an indirect measurement of cell viability. […] O.D. of the plates was read at 570 nm on an ELISA plate reader (Labsystems Multiskan Biochromatic type:348). […] Relative cell viability was calculated defining control group as 100%.
(In general: Formazan colour is commonly taken as a measure of viable cells.)

The next assay relates to TNF treated WEHI 164. As to the kind of experiment: Protection of cells against cytotoxic cytokines (TNF). The format is cell-based. As to conditions: WEHI 164 (and other mammalian) cells.

Usually viability stands for a per cent measure of how many cells are alive, often set against a control. In the case of `O=C(O)/C=C\C(=O)O.OC(CON=C(Cl)c1cccnc1)CN1CCCCC1` (centres unmarked) [N-[2-hydroxy-3-(1-piperidinyl)-propoxy]3-pyridinecarboximidoyl chloride maleate], the “myocardial HSP-70 content” value with HSP-70 (compound alone) is “did not increase myocardial HSP-70 content”; in the assay with HSP-70 (ischemia in the presence of 20 mg/l) it was “increased to approximately the same level as found after heat stress”. The “increase in the heat stress induced hsp72 level” value in the assay with HSP72 is “more than 50%”. In assay [1], the viability at 10 µM was found to be 93%. In the assay with TNF treated WEHI 164, the “survival rate of TNF treated cells” value is “increased the survival rate”.
